Reference: article PMC4942610, “Exploration of acetanilide derivatives of 1-(ω-phenoxyalkyl)uracils as novel inhibitors of Hepatitis C Virus replication” (Scientific Reports, 2016)
Where “and” joins values, the source holds several entries; their conditions need not be identical. Equal values may be shown once. Read-outs that look alike come from different tables or passages of the source.

How the values were obtained:
HCVcc gt 2a strain JFH-1 [1] = test system: HCVcc gt 2a strain JFH-1; set-up: method as in Iro et al.[23]; conditions: Huh7-J20 reporter cells; ref Iro et al.[23]; cited from earlier work
Huh7-J20 cells [2] = conditions: cited from earlier work
[3] = Cell viability assay (WST-1); conditions: human, Huh7-J20 cells
Experimental: (§3) All the drugs were tested starting from the concentration of 30 μM with 3-fold dilutions.
(§4) Huh7, Huh7-J20 and Huh7-J17 cells were tested for viability in the same conditions described for antiviral assays. Cells grown in a 96-well tissue culture plate in the presence of the drugs or DMSO control were incubated with the WST-1 reagent (Roche) for 3 h as per the manufacturer’s protocol. Cell viability was obtained reading absorbance at 450 nm with PHERAstar (BMG Labtech).

HCVcc gt 2a strain JFH-1 [4] = test: HCVcc JFH-1 infection of Huh7-J20 reporter cells, second protocol (full life cycle), SEAP dose-response; format: cell-based, Hepatitis C Virus; conditions: JFH-1 HCVcc gt2a, 3 d post-infection
Huh7-J20 cells [5] = test system: Huh7-J20 cells
Experimental: as §3, §4

[6] = test system: gt1b (isolate Con1) subgenomic I389/NS3-3′/LucUbiMeo/ET replicon; test: gt1b sub-genomic replicon dose-response; format: cell-based, Hepatitis C Virus; conditions: Huh7 cells stably harbouring the Con1 replicon, 72 h, luciferase
HCVcc JFH-1DSGCSL = test: Viral RNA quantification after infection with adaptive mutant JFH-1DSGCSL (Protocol 3), RT-qPCR; format: cell-based, Hepatitis C Virus; conditions: 10 μM, Huh7 cells, Protocol 3, 72 h post-infection
Experimental: To further confirm antiviral activity, we tested Z385, Z387, Z400, and Z401 on a cell culture adaptive derivative HCV JFH-1DSGCSL strain that consistently replicates to high titres. Huh7 cells were infected with HCVcc JFH-1DSGCSL in the presence of drugs as per Protocol 3 described above and RNA was collected 72 h post-infection. Total RNA and the viral RNA were quantified as above.
Figure 5 Antiviral activity on cell-culture adaptive mutant JFH-1DSGCSL. Huh7 cells were infected following the third protocol with adaptive mutant virus and incubated for 3 d with drugs at the concentration of 10 μM. Viral RNA levels and relative SEAP activity were measured as previously described.
Huh7 Lunet-CD81 cells and their control Huh7L- H/EF cells were electroporated with 5 μg of JFH-1 RNA, seeded with drugs in a 12-well tissue culture dish and incubated for 3 d. Cellular RNA was isolated using TRI Reagent (Sigma) following manufacturer’s protocol. RNA quantification from the released viral particles was performed as below following digestion of infected cell medium with RNAse A for 2 h and RNA extraction using the RNeasy kit (Qiagen). HCV RNA quantification was carried out by RT-qPCR using TaqMan probes as reported. Briefly, 250 ng of total RNA were reverse transcribed to obtain cDNA in a 20 μl reaction using TaqMan Reverse Transcription Reagents (Life Technologies) with random hexamers, following manufacturer’s protocol. Reverse transcription was performed at 48 °C for 30 min, followed by 5 min at 85 °C. The qPCR was performed with 1.5 μl of cDNA in a 15 μl reaction mixture (TaqMan Fast Universal PCR Master Mix; Life Technologies) with 250 nM of Fw_primer (5′- […]-3′), 250 nm of Rev_primer (5′-[…]-3′) and 250 nM of TaqMan MGB (minor-groove binding) probe labelled with 6-carboxyfluorescin (5′-FAM-[…]-MGB-3′). Samples were placed in an ABI Fast 7500 instrument (Life Technologies) and were amplified using the following parameters: 95 °C for 5 minutes with cycling parameters set to 95 °C for 3 s and 60 °C for 30 s for 40 cycles. Absolute quantification was carried out using linear regression on a standard curve based on pJFH-1 serial dilution.

[7] = test system: gt3a S52-WT-∆N sub-genomic replicon; test: gt3a sub-genomic replicon dose-response; format: cell-based, Hepatitis C Virus; conditions: Huh7.5-SEC14L2 cells electroporated with S52-WT-∆N RNA, 72 h, luciferase
HCVcc gt 2a strain JFH-1 [8] = test: HCVcc entry model (Protocol 1: drug only during pre-treatment and 3 h infection), SEAP; format: cell-based, Hepatitis C Virus; conditions: 10 μM, 1 h pre-treatment + 3 h infection, then 72 h without drug
Experimental: (§1) Reagents and conditions: a) K2CO3, DMF, room temperature, 24 h; b) MeI, NaH, DMF, 0 °C, 4 h. (B,C) Antiviral activity on HCVcc and cell viability. […] Then, inoculum was removed and cells re-fed with fresh medium. After 72 h the infected cell medium was collected and inhibitory effect was determined by measuring SEAP activity (top). Cell viability analysis was performed following same conditions with no viral infection (bottom). The values of DMSO-treated cells are expressed as 100% and those of the drug-treated cells as relative to this DMSO control. Error bars indicate standard error of the means for 3 experiments. (C) Huh7-J20 cells were infected for 3 h with JFH-1 and then treated for 3 d with drugs (10 μM) (post-entry, top) or infected for 3 h in the presence of the drugs, after a pretreatment of 1 h, and then incubated for 3 d maintaining drugs in the medium (full life cycle, centre). SEAP assay was performed on infected cell medium to determine antiviral activity. Data are presented as in (B) above. Cell viability was performed following full life cycle protocol (bottom).
(§2) To assess the effect of compounds on HCV infection, we used three protocols: Protocol 1 where Huh7-J20[23] cells were pre-treated for 1 h and exposed to the cell culture infectious HCV (HCVcc) gt 2a strain JFH-1 in the presence of 10 μM drug or equivalent DMSO (as a vehicle control) for 3 h. […]

[9] = test system: SGR-JFH-luc sub-genomic replicon; format: cell-based, Hepatitis C Virus
HCVcc gt 2a strain JFH-1 [10] = test: HCVcc post-entry model (Protocol 3: drug added after 3 h infection), SEAP; format: cell-based, Hepatitis C Virus; conditions: 10 μM, 3 d
Experimental: as §1, §2

## C[C@@]1(O)[C@H](O)[C@@H](CO)O[C@H]1n1cnc2c(N)ncnc21 [2′-C-methyladenosine]
HCVcc gt 2a strain JFH-1 [1]
  IC50: 2 µM
Huh7-J20 cells [2]
  CC50: > 30 µM

## O=C(Cn1c(=O)ccn(Cc2ccccc2)c1=O)Nc1ccc(Oc2ccccc2)cc1 [Z176]
[3]
  CC50 at 3 d: 17.6 µM
HCVcc gt 2a strain JFH-1 [4]; Hepatitis C virus, 72 h
  IC50: 1.34 µM

## O=C(Cn1c(=O)ccn(CCCCCOc2ccc(Br)cc2)c1=O)Nc1ccc(Oc2ccccc2)cc1 [Z263]
[3]
  CC50 at 3 d: 56.3 µM
HCVcc gt 2a strain JFH-1 [4]; Hepatitis C virus, 72 h
  IC50: 3.1 µM

## Cc1cn(CCCCCOc2ccc(Br)cc2)c(=O)n(CC(=O)Nc2ccc(Oc3ccccc3)cc2)c1=O [Z376]
Huh7-J20 cells [5]
  CC50: 69.2 µM

## O=C(Cn1c(=O)ccn(CCCCCOc2ccc(Br)cc2)c1=O)Nc1ccc(OCc2ccccc2)cc1 [Z377]
HCVcc gt 2a strain JFH-1 [4]
  IC50: 2.98 µM
Huh7-J20 cells [5]
  CC50: 18.4 µM

## O=C(Cn1c(=O)ccn(CCCCCOc2ccc(Br)cc2)c1=O)Nc1ccc(Oc2ccc(Cl)cc2)cc1 [Z385]
[6]
  IC50: 6.9 µM
HCVcc gt 2a strain JFH-1 [4]
  IC50: 0.585 µM
HCVcc JFH-1DSGCSL
  reduction of total viral RNA levels: 90%
[7]
  IC50: 0.66 µM
Huh7-J20 cells [5]
  CC50: 59.2 µM

## O=C(Cn1c(=O)ccn(CCCCCOc2ccc(Br)cc2)c1=O)Nc1ccc(Cc2ccccc2)cc1 [Z387]
[6]
  IC50: 23.3 µM
HCVcc gt 2a strain JFH-1 [4]
  IC50: 0.712 µM
HCVcc JFH-1DSGCSL
  reduction of total viral RNA levels: 90%
[7]
  IC50: 0.94 µM
Huh7-J20 cells [5]
  CC50: 132 µM

## O=C(Cn1c(=O)ccn(CCCCOc2ccc(Br)cc2)c1=O)Nc1ccc(Oc2ccccc2)cc1 [Z397]
HCVcc gt 2a strain JFH-1 [4]
  IC50: 2.95 µM
Huh7-J20 cells [5]
  CC50: 61.1 µM

## O=C(Cn1c(=O)ccn(CCCCCCOc2ccc(Br)cc2)c1=O)Nc1ccc(Oc2ccccc2)cc1 [Z400]
[6]
  IC50: 12.6 µM
HCVcc gt 2a strain JFH-1 [4]
  IC50: 0.243 µM
HCVcc JFH-1DSGCSL
  reduction of total viral RNA levels: 90%
[7]
  IC50: 1.1 µM
Huh7-J20 cells [5]
  CC50: 66.5 µM

## O=C(Cn1c(=O)ccn(CCCCCCCCOc2ccc(Br)cc2)c1=O)Nc1ccc(Oc2ccccc2)cc1 [Z401]
[6]
  IC50: 2.2 µM
HCVcc gt 2a strain JFH-1 [8]
  inhibition of virus infection (HCVcc entry) relative to DMSO: 80%
HCVcc gt 2a strain JFH-1 [4]
  IC50: 0.092 µM and 0.0924 µM
HCVcc JFH-1DSGCSL
  reduction of total viral RNA levels: 90%
[7]
  IC50: 0.69 µM
[9]
  antiviral activity, short treatment, 48 h post transfection: 50%
HCVcc gt 2a strain JFH-1 [10]
  antiviral activity post-entry: strongly effective post-entry
Huh7-J20 cells [5]
  CC50: 22.6 µM

## Cc1ccc(Oc2ccc(NC(=O)Cn3c(=O)ccn(CCCCCOc4ccc(Br)cc4)c3=O)cc2)cc1 [Z413]
HCVcc gt 2a strain JFH-1 [4]
  IC50: 0.315 µM
Huh7-J20 cells [5]
  CC50: 27.4 µM

## O=C(Cn1c(=O)ccn(CCCCCOc2ccc(Br)cc2)c1=O)Nc1ccc(Oc2ccc(F)cc2)cc1 [Z414]
HCVcc gt 2a strain JFH-1 [4]
  IC50: 0.627 µM
Huh7-J20 cells [5]
  CC50: 30.5 µM

## O=C(Cn1c(=O)ccn(CCCCCOc2cccc(Br)c2)c1=O)Nc1ccc(Oc2ccccc2)cc1 [Z421]
HCVcc gt 2a strain JFH-1 [4]
  IC50: 1.16 µM
Huh7-J20 cells [5]
  CC50: 44.6 µM

## O=C(Cn1c(=O)ccn(CCCCCOc2ccc(Br)cc2)c1=O)Nc1ccc(C(=O)c2ccccc2)cc1 [Z430]
HCVcc gt 2a strain JFH-1 [4]
  IC50: 0.941 µM
Huh7-J20 cells [5]
  CC50: 11.5 µM

## CN(C(=O)Cn1c(=O)ccn(CCCCCOc2ccc(Br)cc2)c1=O)c1ccc(Oc2ccccc2)cc1 [Z431]
[3]
  CC50 at 3 d: 2.67 µM
HCVcc gt 2a strain JFH-1 [4]; Hepatitis C virus, 72 h
  IC50: 0.5 µM

## O=C(Cn1c(=O)ccn(CCCCOCc2ccc(Br)cc2)c1=O)Nc1ccc(Oc2ccccc2)cc1 [Z432]
HCVcc gt 2a strain JFH-1 [4]
  IC50: 1.29 µM
Huh7-J20 cells [5]
  CC50: 19.2 µM
  increase in cytotoxicity compared to Z263: ~3 fold

## N#Cc1ccc(OCCCCCn2ccc(=O)n(CC(=O)Nc3ccc(Oc4ccccc4)cc3)c2=O)cc1 [Z434]
HCVcc gt 2a strain JFH-1 [4]
  IC50: 1.85 µM
Huh7-J20 cells [5]
  CC50: 10.5 µM

## O=C(Cn1c(=O)ccn(CCCCCOc2ccccc2)c1=O)Nc1ccc(Oc2ccccc2)cc1 [Z436]
HCVcc gt 2a strain JFH-1 [4]
  IC50: 3.62 µM
Huh7-J20 cells [5]
  CC50: 13 µM

## O=C(Cn1c(=O)ccn(CCCCCCc2ccccc2)c1=O)Nc1ccc(Oc2ccccc2)cc1 [Z437]
HCVcc gt 2a strain JFH-1 [4]
  IC50: 2.93 µM
Huh7-J20 cells [5]
  CC50: 14.7 µM

## O=C(Cn1c(=O)ccn(CCCCCOc2ccc(-c3ccccc3)cc2)c1=O)Nc1ccc(Oc2ccccc2)cc1 [Z438]
HCVcc gt 2a strain JFH-1 [4]
  IC50: 1.74 µM
Huh7-J20 cells [5]
  CC50: 9.6 µM

## O=C(Cn1c(=O)c(I)cn(CCCCCOc2ccc(Br)cc2)c1=O)Nc1ccc(Oc2ccccc2)cc1 [Z439]
HCVcc gt 2a strain JFH-1 [4]
  IC50: 3.72 µM
Huh7-J20 cells [5]
  CC50: 29.7 µM
